In publication PMC2766634 (Journal of medicinal chemistry, 2009):

What was measured:
[1] = Cyclic voltammetry in water pH 7.0; type: physicochemical; details: pH 7.0 phosphate buffer, 0.1 M KCl, 25 °C
G. lamblia GS/M = experiment: Murine G. lamblia infection model; type: in vivo, Giardia lamblia in C57BL/6 mice; details: mice, five doses over 3 days; for effect on infection (trophozoites in small intestine) at 2 mg/kg: 2 mg/kg oral gavage; for effect on infection (trophozoites in small intestine) at 10 mg/kg: 10 mg/kg oral gavage
[2] = Cyclic voltammetry in DMSO; type: physicochemical; details: for E1/2 in DMSO (half-wave potential, 0/−1 reduction), mean ± SE: cyclic voltammetry, 0.10 M NBu4PF6 in DMSO, 25 °C, 100 mV/s; for E1/2 more positive than Mz: in DMSO, relative to Mz
[3] = test system: G. lamblia (WB/C6, GS/M, 106, and 713); experiment: Antigiardial growth inhibition; type: cell-based, Giardia lamblia; details: IC50 in HeLa cells / EC50 in Giardia
HeLa cells = experiment: Cytotoxicity assay; type: cell-based, human; details: Homo sapiens, HeLa, 48 h, read-out: toxicity in HeLa cells, pIC50 (mean ± SE) (converted)

Row | SMILES | Ep in water (peak potential), mean ± SE [1] [V vs SCE] | effect on infection (trophozoites in small intestine) at 2 mg/kg (G. lamblia GS/M) | effect on infection (trophozoites in small intestine) at 10 mg/kg (G. lamblia GS/M) | E1/2 in DMSO (half-wave potential, 0/−1 reduction), mean ± SE [2] [V vs Fc] | E1/2 more positive than Mz [2] | selectivity ratio, IC50/EC50 [3] | IC50 (HeLa cells) [µM]
1 | Cn1c([N+](=O)[O-])cnc1/C=C/c1cccc(F)c1 [compound 19, 2-[(E)-2-(3-Fluorophenyl)vinyl]-1-methyl-5-nitro-1H-imidazole] | −0.613 ± 0.008 | significant activity | complete clearance of the infection | −1.502 ± 0.001 | – | – | –
2 | Cn1ccnc1/C=C/c1ncc([N+](=O)[O-])n1C [compound 28, 1-Methyl-2-[(E)-2-(1-methyl-1H-imidazol-2-yl)vinyl]-5-nitro-1H-imidazole] | −0.594 ± 0.014 | significant activity | complete clearance of the infection | −1.497 ± 0.001 | 50–65 mV | 1,202 | –
3 | Cn1c([N+](=O)[O-])cnc1/C=C/c1ccco1 [compound 29, 2-[(E)-2-(2-Furyl)vinyl]-1-methyl-5-nitro-1H-imidazole] | – | – | complete clearance of the infection | −1.504 ± 0.003 | 50–65 mV | 2,754 | 93.3
